Results taken from patent publication US20060116390A1, “Hepatitis c virus inhibitors” (priority 2003, published 2006).
Where two headings read alike, the source gives them in different places.

Tested on: HCV proteins in Rep5.1 cells (replicon cell line)
Test: Inhibitory activity of HCV: cell-based ELISA in replicon cell line Rep5.1 (decrease of HCV proteins)
Design: species or system hepatitis C virus
Conditions: Rep5.1 cells, 72 hours with drug
Procedure, shortened: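 Rep5.1 replicon cells (5000/well, DMEM-10 with 500 μg/ml G418) were given serially diluted drug 4 h after seeding. After 72 h, cells were fixed in methanol/acetone and HCV proteins detected by cell-based ELISA using replicon-specific patient plasma antibodies. IC50 is the concentration giving 50% protein decrease versus the no-drug control.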

[1] = Hepatitis C virus, 72 h, concentration at which 50% of HCV proteins was decreased, Table 2, read-out: IC50
[2] = Hepatitis C virus, 72 h, decrease of HCV proteins measured by HCV antibody, Table 1, read-out: Level (IC50 values classified)

Work on `CC1=C(C(=O)OC(C)CCc2cccs2)C(CF)NC(=S)N1` (stereo not shown) [74′, 4-fluoromethyl-6-methyl-2-thioxo-1,2,3,4-tetrahydro-pyrimidine-5-carboxylic acid 1-methyl-3-thiophen-2-yl-propyl ester] yielded an IC50 [1] of 7 µM and an IC50 [2] of 1 to 10 µM.
`CCC#CCCOC(=O)C1=C(C)NC(=S)NC1` [Compound 157, 6-methyl-2-thioxo-1,2,3,4-tetrahydro-pyrimidine-5-carboxylic acid hex-3-inyl ester] was tested, and the IC50 (concentration at which 50% of HCV proteins was decreased, Table 2, read-out: IC50) was 1 µM.
In the case of `O=C(OCCc1ccsc1)C1=C(CF)NC(=S)NC1` [57′, 6-fluoromethyl-2-thioxo-1,2,3,4-tetrahydro-pyrimidine-5-carboxylic acid 2-thiophen-3-yl-ethyl ester], the IC50 [1] is reported as 10 µM and the IC50 [2] is reported as 1 to 10 µM.
For `CC1=C(C(=O)OCc2ccc(Cl)cc2)C(CF)NC(=S)N1` (stereo not shown) [34′, 4-fluoromethyl-6-methyl-2-thioxo-1,2,3,4-tetrahydro-pyrimidine-5-carboxylic acid 4-chloro-benzyl ester], the IC50 [1] was 0.7 µM and the IC50 [2] was < 1 µM.
With `CC1=C(C(=O)O[C@H](C)c2ccccc2)CNC(=S)N1` [Compound 23, 6-methyl-2-thioxo-1,2,3,4-tetrahydro-pyrimidine-5-carboxylic acid (R)-1-phenyl-ethyl ester] the IC50 [1] was 5.4 µM and the IC50 [2] was 1 to 10 µM.
`CC1=C(C(=O)OCCCn2c(=O)sc3ccccc32)C(CF)NC(=S)N1` (stereo not shown) [48′, 4-fluoromethyl-6-methyl-2-thioxo-1,2,3,4-tetrahydro-pyrimidine-5-carboxylic acid 3-(2-oxo-benzothiazol-3-yl)-propyl ester] was tested, and the IC50 [1] was 21 µM and the IC50 [2] was > 20 µM.
In the case of `COc1cc(COC(=O)C2=C(C)NC(=S)NC2)ccc1OCc1ccccc1` [Compound 58, 6-methyl-2-thioxo-1,2,3,4-tetrahydro-pyrimidine-5-carboxylic acid 4-benzyloxy-3-methoxy-benzyl ester], the IC50 [1] is reported as < 0.5 µM and the IC50 [2] is reported as < 1 µM.
For `CC1=C(C(=O)OCC2CCCCC2)C(CF)NC(=S)N1` (stereo not shown) [51′, 4-fluoromethyl-6-methyl-2-thioxo-1,2,3,4-tetrahydro-pyrimidine-5-carboxylic acid cyclohexylmethyl ester], the IC50 [1] was 5.4 µM and the IC50 [2] was 1 to 10 µM.
`CC1=C(C(=O)OCCc2cc3c(C)nn(C)c3s2)CNC(=S)N1` [Compound 267, 6-methyl-2-thioxo-1,2,3,4-tetrahydro-pyrimidine-5-carboxylic acid 2-(1,3-dimethyl-1H-thieno[2,3-c]pyrazol-5-yl)-ethyl ester] was tested, and the IC50 [1] was 24 µM and the IC50 [2] was > 20 µM.
In the case of `CC1=C(C(=O)OCCCCCC(=O)O)CNC(=S)N1` [18′, 6-methyl-2-thioxo-1,2,3,4-tetrahydro-pyrimidine-5-carboxylic acid 5-carboxy-pentyl ester], the IC50 [1] is reported as > 100 µM and the IC50 [2] is reported as > 20 µM.
